Three molecules from PMC9520948, “Moonlighting glyceraldehyde-3-phosphate dehydrogenase (GAPDH) protein of Lactobacillus gasseri attenuates allergic asthma via immunometabolic change in macrophages” (Journal of Biomedical Science, 2022) can be followed below.

The target of one test is T1, human plasminogen (Homo sapiens, UniProt P00747).
T1 construct: gene PLG; commercial (BioVision), 1 microgram coated on polystyrene plate
Description: competitive solid-phase binding assay (ELISA), displacement of GAPDH. Particulars: competition with 125 ng His-tagged bacterial GAPDH; EACA 1.25 to 10 mM; lysine analog.

Test [1] addresses T2, LGp40 (GAPDH of L. gasseri) (Lactobacillus gasseri, UniProt A0A1V3Y2M1).
T2 construct: gene gap; His6-tagged, pET21b, E. coli BL21(DE3), Ni-NTA then Q column; 37 kDa; tetramer through crystal symmetry
In words: X-ray crystallography, […] A. The following applies: NAD-binding site, Asp38 hydrogen bonds; crystals at pH 6.5.

The target in test [2] is LGp40, His-tagged recombinant glyceraldehyde-3-phosphate dehydrogenase (GAPDH) of Lactobacillus gasseri (Lactobacillus gasseri (BCRC14619)). Description: crystal structure; X-ray, 1.88 A, space group I4(1)22; one LGp40 copy in the asymmetric unit, tetramer through crystal symmetry; crystals from 0.1 M sodium cacodylate pH 6.5, 16% w/v PEG 4000, 25 C.

T1 sequence (P00747 20-810): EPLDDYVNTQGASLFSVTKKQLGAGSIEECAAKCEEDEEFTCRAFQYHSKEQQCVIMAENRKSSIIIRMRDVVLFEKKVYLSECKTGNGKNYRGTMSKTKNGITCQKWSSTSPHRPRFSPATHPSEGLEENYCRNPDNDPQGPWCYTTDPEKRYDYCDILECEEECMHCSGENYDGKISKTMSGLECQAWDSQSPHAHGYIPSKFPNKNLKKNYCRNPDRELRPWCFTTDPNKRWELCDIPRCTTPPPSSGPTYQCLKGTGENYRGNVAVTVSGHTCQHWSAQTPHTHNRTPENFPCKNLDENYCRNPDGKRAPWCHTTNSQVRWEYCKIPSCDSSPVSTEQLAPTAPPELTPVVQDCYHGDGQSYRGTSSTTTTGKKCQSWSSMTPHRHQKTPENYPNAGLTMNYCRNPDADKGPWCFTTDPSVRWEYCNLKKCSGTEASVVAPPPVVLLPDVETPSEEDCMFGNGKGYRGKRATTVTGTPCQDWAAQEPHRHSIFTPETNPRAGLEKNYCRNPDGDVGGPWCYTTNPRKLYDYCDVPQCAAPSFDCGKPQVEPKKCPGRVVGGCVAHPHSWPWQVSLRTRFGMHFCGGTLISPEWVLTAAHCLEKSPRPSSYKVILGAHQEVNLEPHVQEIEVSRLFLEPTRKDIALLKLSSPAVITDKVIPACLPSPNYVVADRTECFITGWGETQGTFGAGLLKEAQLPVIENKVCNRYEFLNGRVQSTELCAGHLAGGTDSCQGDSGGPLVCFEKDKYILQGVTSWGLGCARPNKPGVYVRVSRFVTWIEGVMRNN

Consider `NCCCCCC(=O)O` [EACA], for which, at human plasminogen, the “competitive solid-phase binding assay (ELISA), displacement of GAPDH” value is on record as “a competitive binding assay using EACA, a lysine analog”. As for `NC(=O)c1ccc[n+]([C@@H]2O[C@H](COP(=O)(O)OP(=O)(O)OC[C@H]3O[C@@H](n4cnc5c(N)ncnc54)[C@H](O)[C@@H]3O)[C@@H](O)[C@H]2O)c1` [NAD^+], the “X-ray crystallography, 1.88 A” value in test [1] is “contributes two hydrogen-bond interactions with NAD^+ to provide stronger binding forces”.

On to “LGp40, His-tagged recombinant glyceraldehyde-3-phosphate dehydrogenase (GAPDH) of Lactobacillus gasseri (enzyme)”, for which, in test [2], the stoichiometry N was 4.

As usually defined, the stoichiometry N is the number of molecules, sites or subunits per partner or assembly.
